According to US20240101540A1, “TARGETED PROTEIN DEGRADATION OF PARP14 FOR USE IN THERAPY” (Ribon Therapeutics, Inc., priority 2022, published 2024):
Where a name gives a salt, the structure may show the parent alone.

Molecular target: T1, HiBiT tagged PARP14 (Homo sapiens, UniProt Q460N5)
T1 construct: engineered to contain a HiBiT tag on both alleles of the PARP14 gene; endogenous in cells; host or cells: Jurkat cells stably transfected with LgBiT (Promega), PARP14 locus edited by CRISPR/Cas9
Test: HiBiT assay for the degradation of PARP14 (HiBiT tagged PARP14 in LgBiT expressing Jurkat cells, 2 or 24 hours)
Format: cell-based
Conditions: Assay B (Example B): HiBiT tagged PARP14 degradation in LgBiT expressing Jurkat cells, read-out: DC50
Experimental: Jurkat cells stably transfected with LgBiT (Promega) were engineered to contain a HiBiT tag on both alleles of the PARP14 gene (Genbank Accession Number: NM_017554) via CRISPR/Cas9 editing. The HiBiT tag is an 11 amino acid tag created by Promega that associates with LgBiT protein to form the NanoLuc® tag on the C-terminus of PARP14. Clones were isolated and confirmed for the HiBiT tag via Sanger sequencing.
Degradation of PARP14 protein was assessed by measuring the luminescence of the HiBiT tag associating with the LgBiT protein as a proxy for the PARP14 protein.
Jurkat cells were diluted to 250,000 cells per mL and then added to assay plate (Corning 3574) using a Multidrop (Thermo Fisher) to add 20 μL per well of the 384 well plate, resulting in 5,000 cells per well. 20 nL of a dose response curve diluted in DMSO of each test compound was added to the cell plate using a Mosquito (TTP Labtech) and the plate was incubated at 37° C. for 2 or 24 hours. Assay plate was brought to room temperature then 5 μL per well of Live Cell Substrate (Promega) was added to the plate. Luminescence was measured on an Envision (Perkin Elmer).
The average DMSO was calculated from 32 wells containing 0.1% DMSO only in columns 12 and 24 of the assay plate. The % of DMSO values were calculated as described below: […]
The % of DMSO values were plotted as a function of compound concentration and the following 4-parameter fit was applied to derive the DC50 values:
where top, bottom, and Hill Coefficient are allowed to float. Y is the % of DMSO and X is the compound concentration.
DC50 data for the Example compounds is provided below in Table 2 (“+” is ≤0.03 μM; “++” is ≥0.03 μM).

T1 sequence (Q460N5 whole entry): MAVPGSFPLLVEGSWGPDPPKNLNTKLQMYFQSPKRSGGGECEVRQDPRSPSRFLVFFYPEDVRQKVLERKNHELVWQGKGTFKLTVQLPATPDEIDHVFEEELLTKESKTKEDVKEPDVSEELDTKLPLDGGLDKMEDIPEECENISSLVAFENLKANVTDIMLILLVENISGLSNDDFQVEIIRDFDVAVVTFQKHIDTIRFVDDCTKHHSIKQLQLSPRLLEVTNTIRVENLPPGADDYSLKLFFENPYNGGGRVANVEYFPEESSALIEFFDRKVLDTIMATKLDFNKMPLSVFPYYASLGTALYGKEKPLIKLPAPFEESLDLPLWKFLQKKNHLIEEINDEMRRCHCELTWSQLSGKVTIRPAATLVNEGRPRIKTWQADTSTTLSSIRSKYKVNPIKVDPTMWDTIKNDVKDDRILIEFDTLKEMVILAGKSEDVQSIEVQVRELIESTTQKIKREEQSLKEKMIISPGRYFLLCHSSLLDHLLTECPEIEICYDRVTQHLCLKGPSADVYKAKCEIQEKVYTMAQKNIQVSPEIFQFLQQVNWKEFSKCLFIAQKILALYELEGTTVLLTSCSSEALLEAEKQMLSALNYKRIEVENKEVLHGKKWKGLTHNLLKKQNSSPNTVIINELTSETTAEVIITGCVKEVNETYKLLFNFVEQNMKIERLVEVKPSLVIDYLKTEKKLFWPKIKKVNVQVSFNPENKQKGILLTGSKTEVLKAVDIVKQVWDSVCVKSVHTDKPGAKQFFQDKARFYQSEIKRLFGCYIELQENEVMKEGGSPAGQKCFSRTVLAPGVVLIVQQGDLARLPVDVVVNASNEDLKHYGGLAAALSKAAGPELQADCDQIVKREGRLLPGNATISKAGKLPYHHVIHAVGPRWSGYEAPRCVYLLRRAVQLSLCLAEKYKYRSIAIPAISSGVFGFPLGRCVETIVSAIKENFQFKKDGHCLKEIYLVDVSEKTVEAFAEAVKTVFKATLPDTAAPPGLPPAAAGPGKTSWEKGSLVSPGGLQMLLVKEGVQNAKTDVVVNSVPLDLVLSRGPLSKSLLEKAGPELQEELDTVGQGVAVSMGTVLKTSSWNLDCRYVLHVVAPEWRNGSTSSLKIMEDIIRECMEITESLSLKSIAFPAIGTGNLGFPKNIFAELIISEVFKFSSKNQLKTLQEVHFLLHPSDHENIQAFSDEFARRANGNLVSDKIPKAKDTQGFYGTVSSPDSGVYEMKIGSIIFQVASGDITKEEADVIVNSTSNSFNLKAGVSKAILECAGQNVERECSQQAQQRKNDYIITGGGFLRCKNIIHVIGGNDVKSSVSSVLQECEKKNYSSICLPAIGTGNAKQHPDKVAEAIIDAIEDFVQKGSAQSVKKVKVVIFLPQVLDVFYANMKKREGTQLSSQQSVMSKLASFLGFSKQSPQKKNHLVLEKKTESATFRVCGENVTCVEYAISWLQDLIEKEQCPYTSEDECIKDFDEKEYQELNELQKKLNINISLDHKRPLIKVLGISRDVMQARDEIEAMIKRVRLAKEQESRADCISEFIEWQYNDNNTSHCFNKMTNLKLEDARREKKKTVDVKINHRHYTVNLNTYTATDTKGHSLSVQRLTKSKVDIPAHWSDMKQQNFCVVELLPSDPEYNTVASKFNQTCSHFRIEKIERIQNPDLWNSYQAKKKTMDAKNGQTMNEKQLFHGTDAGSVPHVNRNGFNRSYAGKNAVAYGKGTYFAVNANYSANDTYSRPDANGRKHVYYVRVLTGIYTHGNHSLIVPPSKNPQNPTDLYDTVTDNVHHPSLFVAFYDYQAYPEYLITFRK

SMILES	DC50
O=C1CCN(c2cncc3c(N4CCN(CCN5CCC(COc6cc(F)c7c(=O)[nH]c(CSC8CCOCC8)nc7c6)CC5)CC4)cccc23)C(=O)N1 [Example 210, 1-(8-(4-(2-(4-(((5-fluoro-4-oxo-2-(((tetrahydro-2H-pyran-4-yl)thio)methyl)-3,4-dihydroquinazolin-7-yl)oxy)methyl)piperidin-1-yl)ethyl)piperazin-1-yl)isoquinolin-4-yl)dihydropyrimidine-2,4(1H,3H)-dione]	< 30 nM
Cn1nc(N2CCC(=O)NC2=O)c2cc(F)c(N3CCN(CCN4CCC(COc5cc(F)c6c(=O)[nH]c(CSC7CCOCC7)nc6c5)CC4)CC3)cc21 [Example 212, 1-(5-fluoro-6-(4-(2-(4-(((5-fluoro-4-oxo-2-(((tetrahydro-2H-pyran-4-yl)thio)methyl)-3,4-dihydroquinazolin-7-yl)oxy)methyl)piperidin-1-yl)ethyl)piperazin-1-yl)-1-methyl-1H-indazol-3-yl)dihydropyrimidine-2,4(1H,3H)-dione]	< 30 nM
O=C1CCC(Nc2ccc(F)c(N3CCN(CCN4CCC(COc5cc(F)c6c(=O)[nH]c(CSC7CCOCC7)nc6c5)CC4)CC3)c2)C(=O)N1 (stereo not drawn) [Example 104, 3-((4-fluoro-3-(4-(2-(4-(((5-fluoro-4-oxo-2-(((tetrahydro-2H-pyran-4-yl)thio)methyl)-3,4-dihydroquinazolin-7-yl)oxy)methyl)piperidin-1-yl)ethyl)piperazin-1-yl)phenyl)amino)piperidine-2,6-dione]	< 30 nM
O=C1CCC(Nc2ccc(OC3CC(CN4CCC(COc5cc(F)c6c(=O)[nH]c(CCC7CCOCC7)nc6c5)CC4)C3)cc2)C(=O)N1 (stereo not drawn) [Example 110]	< 30 nM
O=C1CCN(c2ccc(N3CCN(CCN4CCC(COc5cc(F)c6c(=O)[nH]c(CSC7CCOCC7)nc6c5)CC4)CC3)c(F)c2)C(=O)N1 [Example 196, 1-(3-fluoro-4-(4-(2-(4-(((5-fluoro-4-oxo-2-(((tetrahydro-2H-pyran-4-yl)thio)methyl)-3,4-dihydroquinazolin-7-yl)oxy)methyl)piperidin-1-yl)ethyl)piperazin-1-yl)phenyl)dihydropyrimidine-2,4(1H,3H)-dione]	< 30 nM
O=C1CCC(Nc2ccc(N3CCC(N4CCC(COc5cc(F)c6c(=O)[nH]c(CCC7CCOCC7)nc6c5)CC4)CC3)c(F)c2)C(=O)N1 (single isomer, unassigned) [Example 117b, 3-((3-fluoro-4-(4-(((5-fluoro-4-oxo-2-(2-(tetrahydro-2H-pyran-4-yl)ethyl)-3,4-dihydroquinazolin-7-yl)oxy)methyl)-[1,4′-bipiperidin]-11′-yl)phenyl)amino)piperidine-2,6-dione]	< 30 nM
O=C1CCC(Nc2ccc(N3CCC(N4CCC(COc5cc(F)c6c(=O)[nH]c(COC7CCOCC7)nc6c5)CC4)CC3)c(F)c2)C(=O)N1 (stereo not drawn) [Example 135, 3-((3-fluoro-4-(4-(((5-fluoro-4-oxo-2-(((tetrahydro-2H-pyran-4-yl)oxy)methyl)-3,4-dihydroquinazolin-7-yl)oxy)methyl)-[1,4′-bipiperidin]-1′-yl)phenyl)amino)piperidine-2,6-dione formate]	< 30 nM
O=C1CCC(Nc2cc(F)c(N3CCN(CCN4CCC(COc5cc(F)c6c(=O)[nH]c(CSC7CCOCC7)nc6c5)CC4)CC3)cc2F)C(=O)N1 (stereo not drawn) [Example 141]	< 30 nM
Cn1nc(C2CCC(=O)NC2=O)c2cc(F)c(C3CCN(CCN4CCC(COc5cc(F)c6c(=O)[nH]c(CSC7CCOCC7)nc6c5)CC4)CC3)cc21 (stereo not drawn) [Example 195, 3-(5-fluoro-6-(1-(2-(4-(((5-fluoro-4-oxo-2-(((tetrahydro-2H-pyran-4-yl)thio)methyl)-3,4-dihydroquinazolin-7-yl)oxy)methyl)piperidin-1-yl)ethyl)piperidin-4-yl)-1-methyl-1H-indazol-3-yl)piperidine-2,6-dione]	< 30 nM
